Experimental data from ChEMBL document CHEMBL6127132, “Design, Synthesis, and Biological Evaluation of Novel Diaminopyrimidine Macrocycles as Fourth Generation Reversible EGFR Inhibitors That Overcome Clinical Resistance to Osimertinib Mediated by C797S Mutation” (J Med Chem, 2024).

Tests used:
[1] = Antiproliferative activity against mouse BaF3 cells assessed as inhibition of cell proliferation incubated for 72 hrs by CCK-8 assay; format: toxicity, cell-based
[2] = molecular target: Epidermal growth factor receptor (Mus musculus) (UniProt Q01279); assay: Inhibition of EGFR phosphorylation in mouse BaF3 cells harboring EGFR L858R/T790M/C797S mutant preincubated for 2 hrs followed by EGF stimulation and measured after 15 mins by Western blot analysis; format: cell-based; details: dose 1-1000 nM, time 135.0 min
[3] = molecular target: Epidermal growth factor receptor (Mus musculus) (UniProt Q01279); assay: Inhibition of EGFR phosphorylation in mouse BaF3 cells harboring EGFR 19del/T790M/C797S mutant preincubated for 2 hrs followed by EGF stimulation and measured after 15 mins by Western blot analysis; format: cell-based; details: dose 1-1000 nM, time 135.0 min
[4] = molecular target: Epidermal growth factor receptor (Mus musculus) (UniProt Q01279); assay: Inhibition of EGFR downstream signaling in mouse BaF3 cells harboring EGFR L858R/T790M/C797S mutant assessed as reduction in phosphorylated ERK level preincubated for 2 hrs followed by EGF stimulation and measured after 15 mins by Western blot analysis; format: cell-based; details: dose 1-1000 nM, time 135.0 min
[5] = molecular target: Epidermal growth factor receptor (Mus musculus) (UniProt Q01279); assay: Inhibition of EGFR downstream signaling in mouse BaF3 cells harboring EGFR 19del/T790M/C797S mutant assessed as reduction in phosphorylated ERK level preincubated for 2 hrs followed by EGF stimulation and measured after 15 mins by Western blot analysis; format: cell-based; details: dose 1-1000 nM, time 135.0 min
[6] = Induction of apoptosis in mouse BaF3 cells harboring EGFR 19del/T790M/C797S mutant assessed as early apoptotic cells at 30 nM incubated for 48 hrs by Annexin V-FITC/PI staining based flow cytometric analysis (reference value: 0.46 %); format: functional
[7] = Induction of apoptosis in mouse BaF3 cells harboring EGFR 19del/T790M/C797S mutant assessed as late apoptotic cells at 30 nM incubated for 48 hrs by Annexin V-FITC/PI staining based flow cytometric analysis (reference value: 2.29 %); format: functional
[8] = Induction of apoptosis in mouse BaF3 cells harboring EGFR 19del/T790M/C797S mutant assessed as early apoptotic cells at 100 nM incubated for 48 hrs by Annexin V-FITC/PI staining based flow cytometric analysis (reference value: 0.46 %); format: functional
[9] = Induction of apoptosis in mouse BaF3 cells harboring EGFR 19del/T790M/C797S mutant assessed as late apoptotic cells at 100 nM incubated for 48 hrs by Annexin V-FITC/PI staining based flow cytometric analysis (reference value: 2.29 %); format: functional
[10] = Induction of apoptosis in mouse BaF3 cells harboring EGFR 19del/T790M/C797S mutant assessed as early apoptotic cells at 300 nM incubated for 48 hrs by Annexin V-FITC/PI staining based flow cytometric analysis (reference value: 0.46 %); format: functional
[11] = Induction of apoptosis in mouse BaF3 cells harboring EGFR 19del/T790M/C797S mutant assessed as late apoptotic cells at 300 nM incubated for 48 hrs by Annexin V-FITC/PI staining based flow cytometric analysis (reference value: 2.29 %); format: functional
[12] = Induction of apoptosis in mouse BaF3 cells harboring EGFR 19del/T790M/C797S mutant assessed as early apoptotic cells at 1000 nM incubated for 48 hrs by Annexin V-FITC/PI staining based flow cytometric analysis (reference value: 0.46 %); format: functional
[13] = Induction of apoptosis in mouse BaF3 cells harboring EGFR 19del/T790M/C797S mutant assessed as late apoptotic cells at 1000 nM incubated for 48 hrs by Annexin V-FITC/PI staining based flow cytometric analysis (reference value: 2.29 %); format: functional
[14] = test system: BaF3; assay: Induction of apoptosis in mouse BaF3 cells harboring EGFR 19del/T790M/C797S mutant assessed as caspase 3 cleavage incubated for 48 hrs by Western blot analysis; format: functional, cell-based; details: dose 30-1000 nM
[15] = Half-life in male SPF Sprague-Dawley rat at 2 mg/kg, iv measured after 24 hrs by LC-MS/MS analysis; format: ADME, organism-based; details: in vivo
[16] = Tmax in male SPF Sprague-Dawley rat at 2 mg/kg, iv measured after 24 hrs by LC-MS/MS analysis; format: ADME, organism-based; details: in vivo
[17] = Cmax in male SPF Sprague-Dawley rat at 2 mg/kg, iv measured after 24 hrs by LC-MS/MS analysis; format: ADME, organism-based; details: in vivo
[18] = AUC (0 to t) in male SPF Sprague-Dawley rat at 2 mg/kg, iv measured after 24 hrs by LC-MS/MS analysis; format: ADME, organism-based; details: in vivo
[19] = AUC (0 to infinity) in male SPF Sprague-Dawley rat at 2 mg/kg, iv measured after 24 hrs by LC-MS/MS analysis; format: ADME, organism-based; details: in vivo
[20] = Clearance in male SPF Sprague-Dawley rat at 2 mg/kg, iv measured after 24 hrs by LC-MS/MS analysis; format: ADME, organism-based; details: in vivo
[21] = MRT (0 to t) in male SPF Sprague-Dawley rat at 2 mg/kg, iv measured after 24 hrs by LC-MS/MS analysis; format: ADME, organism-based; details: in vivo
[22] = Half-life in male SPF Sprague-Dawley rat at 10 mg/kg, po measured after 24 hrs by LC-MS/MS analysis; format: ADME, organism-based; details: in vivo
[23] = Tmax in male SPF Sprague-Dawley rat at 10 mg/kg, po measured after 24 hrs by LC-MS/MS analysis; format: ADME, organism-based; details: in vivo
[24] = Cmax in male SPF Sprague-Dawley rat at 10 mg/kg, po measured after 24 hrs by LC-MS/MS analysis; format: ADME, organism-based; details: in vivo
[25] = AUC (0 to t) in male SPF Sprague-Dawley rat at 10 mg/kg, po measured after 24 hrs by LC-MS/MS analysis; format: ADME, organism-based; details: in vivo
[26] = AUC (0 to infinity) in male SPF Sprague-Dawley rat at 10 mg/kg, po measured after 24 hrs by LC-MS/MS analysis; format: ADME, organism-based; details: in vivo
[27] = MRT (0 to t) in male SPF Sprague-Dawley rat at 10 mg/kg, po measured after 24 hrs by LC-MS/MS analysis; format: ADME, organism-based; details: in vivo
[28] = Oral bioavailability in male SPF Sprague-Dawley rat at 10 mg/kg measured after 24 hrs by LC-MS/MS analysis; format: ADME, organism-based; details: in vivo
[29] = test system: BaF3; assay: Antitumor activity against mouse BaF3 cells harboring 19del/T790M/C797S mutant implanted in female BALB/c nu/nu mouse assessed as tumor growth inhibition at 20 mg/kg, po administered once daily for 9 days relative to control; format: functional; details: BaF3, 216 h, time 9 day, read-out: TGI
[30] = Toxicity in female BALB/c nu/nu mouse implanted with mouse BaF3 cells harboring 19del/T790M/C797S mutant assessed as mortality at 20 mg/kg, po administered once daily for 9 days; format: organism-based; details: in vivo, 216 h, time 9 day
[31] = Toxicity in female BALB/c nu/nu mouse implanted with mouse BaF3 cells harboring 19del/T790M/C797S mutant assessed as body weight loss at 20 mg/kg, po administered once daily for 9 days; format: organism-based; details: in vivo, 216 h, time 9 day
[32] = test system: BaF3; assay: cells; details: Mus musculus, BaF3, 72 h
[33] = test system: BaF3; assay: cells; details: Mus musculus, BaF3, 72 h; remark: listed apart in the source
[34] = cells; details: Homo sapiens, PC9-OR, 72 h
[35] = test system: A-431; assay: cells; details: Homo sapiens, A-431, 72 h
Description: Antiproliferative activity against human A-431 cells harboring wildtype EGFR assessed as inhibition of cell proliferation measured after 72 hrs by SRB assay

Chain of Epidermal growth factor receptor (Mus musculus) (Q01279 whole entry): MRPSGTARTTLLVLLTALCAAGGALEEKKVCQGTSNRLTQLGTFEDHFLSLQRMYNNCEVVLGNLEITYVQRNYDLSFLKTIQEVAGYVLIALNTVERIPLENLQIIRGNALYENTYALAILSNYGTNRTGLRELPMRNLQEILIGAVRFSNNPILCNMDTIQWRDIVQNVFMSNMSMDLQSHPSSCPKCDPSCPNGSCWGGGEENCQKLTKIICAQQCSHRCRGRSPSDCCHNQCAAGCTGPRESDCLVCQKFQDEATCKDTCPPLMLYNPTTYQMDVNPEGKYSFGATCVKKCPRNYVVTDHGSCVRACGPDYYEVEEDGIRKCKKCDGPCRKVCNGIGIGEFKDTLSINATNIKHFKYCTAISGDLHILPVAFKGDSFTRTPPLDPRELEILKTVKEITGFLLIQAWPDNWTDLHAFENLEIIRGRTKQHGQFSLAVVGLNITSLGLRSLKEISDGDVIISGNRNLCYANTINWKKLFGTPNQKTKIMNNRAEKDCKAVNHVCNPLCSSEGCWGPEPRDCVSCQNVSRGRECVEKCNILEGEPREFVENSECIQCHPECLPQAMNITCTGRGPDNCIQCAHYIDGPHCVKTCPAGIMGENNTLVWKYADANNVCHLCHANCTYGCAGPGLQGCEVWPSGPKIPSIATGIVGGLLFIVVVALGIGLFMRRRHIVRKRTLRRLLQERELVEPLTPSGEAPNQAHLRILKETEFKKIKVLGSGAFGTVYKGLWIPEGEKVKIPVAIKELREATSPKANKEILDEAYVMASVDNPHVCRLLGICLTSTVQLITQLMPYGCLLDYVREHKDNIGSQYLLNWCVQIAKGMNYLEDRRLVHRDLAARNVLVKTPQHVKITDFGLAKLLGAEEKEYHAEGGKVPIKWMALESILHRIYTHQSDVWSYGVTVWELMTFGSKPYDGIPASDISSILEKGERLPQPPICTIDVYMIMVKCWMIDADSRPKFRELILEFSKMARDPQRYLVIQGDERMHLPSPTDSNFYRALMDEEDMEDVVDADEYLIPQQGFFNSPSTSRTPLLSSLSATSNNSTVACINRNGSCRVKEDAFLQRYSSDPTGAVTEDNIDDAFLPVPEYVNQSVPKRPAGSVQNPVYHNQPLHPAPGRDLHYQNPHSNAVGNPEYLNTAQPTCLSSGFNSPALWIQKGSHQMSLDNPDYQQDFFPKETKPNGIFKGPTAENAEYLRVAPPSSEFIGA

In the case of `COc1cc(N2CCOCC2)c2cc1Nc1ncc(C)c(n1)Nc1ccc(cc1P(C)(C)=O)OCCCn1cc-2cn1`, the IC50 at 72 h [1] is reported as 2100 nM, the inhibition [2] is reported as “Dose-Dependent Effect” and the inhibition [3] is reported as “Dose-Dependent Effect”. The inhibition [4] was “Dose-Dependent Effect”, the inhibition [5] was “Dose-Dependent Effect” and the Activity [6] was 2.26%. For the same compound, the Activity [7] was 1.64%, the Activity [8] was 5.98% and the Activity [9] was 3.44%. The Activity [10] was 34.23%, the Activity [11] was 16.34% and the Activity [12] was 71.63%. For the same compound, the Activity [13] was 17.31%, the Activity [14] was “Dose-Dependent Effect” and the half-life [15] was 5.54 h. For the same compound, the Tmax [16] was 4.98 min, the Cmax [17] was 2150 ng/mL and the AUC(0-t) at 24 h [18] was 7630 ng·h/mL. For the same compound, the AUC(0-inf) [19] was 7900 ng·h/mL, the clearance [20] was 4.27 mL/min/kg and the MRT last at 24 h [21] was 3.89 h. The half-life [22] was 4.32 h, the Tmax [23] was 1.67 h and the Cmax [24] was 1820 ng/mL. It also gave an AUC(0-t) at 24 h [25] of 18000 ng·h/mL, an AUC(0-inf) [26] of 18500 ng·h/mL and an MRT last at 24 h [27] of 5.86 h. The bioavailability [28] was 47%, the inhibition in vivo at 20 mg/kg [29] was 65.4% and the Activity [30] was “Non-Toxic”. The Activity [31] was “Non-Toxic”, the IC50 [32] was 41 nM and the IC50 [33] was 52 nM. It also gave an IC50 [34] of 56 nM and an IC50 [35] of 246 nM.
